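Dose response: 5 concentrations. Exposure: 48 h. Format: 96-well plates. Endpoint: linear interpolation; highest concentration if not reached. Definition used: TGI = concentration required for complete inhibition of growth.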
Tests used:
Assay in all cases: DTP human tumour cell line panel, 48 h
K-562 leukemia = system: K-562 leukemia
SNB-19 CNS = system: SNB-19 CNS
786-0 renal = system: 786-0 renal
NCI-H226 lung = system: NCI-H226 lung
HCT-116 colon = system: HCT-116 colon
UO-31 renal = system: UO-31 renal
OVCAR-3 ovarian = system: OVCAR-3 ovarian
UACC-62 melanoma = system: UACC-62 melanoma
SK-OV-3 ovarian = system: SK-OV-3 ovarian
MOLT-4 leukemia = system: MOLT-4 leukemia
T-47D breast = system: T-47D breast
NCI/ADR-RES ovarian = system: NCI/ADR-RES ovarian
SK-MEL-5 melanoma = system: SK-MEL-5 melanoma
HCT-15 colon = system: HCT-15 colon
CAKI-1 renal = system: CAKI-1 renal
ACHN renal = system: ACHN renal
TK-10 renal = system: TK-10 renal
SW-620 colon = system: SW-620 colon
KM12 colon = system: KM12 colon
UACC-257 melanoma = system: UACC-257 melanoma
MALME-3M melanoma = system: MALME-3M melanoma
DU-145 prostate = system: DU-145 prostate
HOP-62 NSCLC = system: HOP-62 NSCLC
PC-3 prostate = system: PC-3 prostate
HS 578T breast = system: HS 578T breast
NCI-H460 lung = system: NCI-H460 lung
NCI-H522 lung = system: NCI-H522 lung
COLO 205 colon = system: COLO 205 colon
A549 NSCLC = system: A549 NSCLC
MDA-N = system: MDA-N
SK-MEL-2 melanoma = system: SK-MEL-2 melanoma
CCRF-CEM leukemia = system: CCRF-CEM leukemia
OVCAR-4 ovarian = system: OVCAR-4 ovarian
IGROV1 ovarian = system: IGROV1 ovarian
SNB-75 CNS = system: SNB-75 CNS
MDA-MB-231 breast = system: MDA-MB-231 breast
M14 melanoma = system: M14 melanoma
RXF 393 renal = system: RXF 393 renal
HL-60(TB) leukemia = system: HL-60(TB) leukemia
SF-268 CNS = system: SF-268 CNS
U251 CNS = system: U251 CNS
BT-549 breast = system: BT-549 breast
MDA-MB-435 = system: MDA-MB-435
OVCAR-8 ovarian = system: OVCAR-8 ovarian
OVCAR-5 ovarian = system: OVCAR-5 ovarian
EKVX NSCLC = system: EKVX NSCLC
SF-295 CNS = system: SF-295 CNS
SN12C renal = system: SN12C renal
RPMI-8226 leukemia = system: RPMI-8226 leukemia
SR leukemia = system: SR leukemia
LOX IMVI melanoma = system: LOX IMVI melanoma
HT29 colon = system: HT29 colon
HCC-2998 colon = system: HCC-2998 colon
NCI-H23 lung = system: NCI-H23 lung
MCF7 breast = system: MCF7 breast
SK-MEL-28 melanoma = system: SK-MEL-28 melanoma
HOP-92 NSCLC = system: HOP-92 NSCLC
SF-539 CNS = system: SF-539 CNS
A498 renal = system: A498 renal

In the case of `CCC1(CC)C(=O)N(C(=O)c2ccc(C)cc2)N(C(=O)c2ccc(C)cc2)C1=O`, the TGI (K-562 leukemia) is reported as over 75 µM, the TGI (SNB-19 CNS) is reported as over 75 µM and the TGI (786-0 renal) is reported as over 75 µM. The TGI (NCI-H226 lung) was over 75 µM, the TGI (HCT-116 colon) was over 75 µM and the TGI (UO-31 renal) was over 75 µM. For the same compound, the TGI (OVCAR-3 ovarian) was 46.4 µM, the TGI (UACC-62 melanoma) was over 75 µM and the TGI (SK-OV-3 ovarian) was over 75 µM. The TGI (MOLT-4 leukemia) was 58.5 µM, the TGI (T-47D breast) was over 75 µM and the TGI (NCI/ADR-RES ovarian) was over 75 µM. It also gave a TGI (SK-MEL-5 melanoma) of over 75 µM, a TGI (HCT-15 colon) of over 75 µM and a TGI (CAKI-1 renal) of over 75 µM. The TGI (ACHN renal) was over 75 µM, the TGI (TK-10 renal) was over 75 µM and the TGI (SW-620 colon) was over 75 µM. It also gave a TGI (KM12 colon) of over 75 µM, a TGI (UACC-257 melanoma) of over 75 µM and a TGI (MALME-3M melanoma) of 62.7 µM. For the same compound, the TGI (DU-145 prostate) was over 75 µM, the TGI (HOP-62 NSCLC) was over 75 µM and the TGI (PC-3 prostate) was over 75 µM. The TGI (HS 578T breast) was over 75 µM, the TGI (NCI-H460 lung) was over 75 µM and the TGI (NCI-H522 lung) was 51.6 µM. It also gave a TGI (COLO 205 colon) of over 75 µM, a TGI (A549 NSCLC) of over 75 µM and a TGI (MDA-N) of over 75 µM. The TGI (SK-MEL-2 melanoma) was over 75 µM, the TGI (CCRF-CEM leukemia) was over 75 µM and the TGI (OVCAR-4 ovarian) was over 75 µM. For the same compound, the TGI (IGROV1 ovarian) was over 75 µM, the TGI (SNB-75 CNS) was over 75 µM and the TGI (MDA-MB-231 breast) was over 75 µM. It also gave a TGI (M14 melanoma) of over 75 µM, a TGI (RXF 393 renal) of over 75 µM and a TGI (HL-60(TB) leukemia) of over 75 µM. For the same compound, the TGI (SF-268 CNS) was over 75 µM, the TGI (U251 CNS) was over 75 µM and the TGI (BT-549 breast) was over 75 µM. For the same compound, the TGI (MDA-MB-435) was over 75 µM, the TGI (OVCAR-8 ovarian) was over 75 µM and the TGI (OVCAR-5 ovarian) was over 75 µM. For the same compound, the TGI (EKVX NSCLC) was over 75 µM, the TGI (SF-295 CNS) was over 75 µM and the TGI (SN12C renal) was over 75 µM. It also gave a TGI (RPMI-8226 leukemia) of over 75 µM, a TGI (SR leukemia) of 68.8 µM and a TGI (LOX IMVI melanoma) of over 75 µM. The TGI (HT29 colon) was over 75 µM, the TGI (HCC-2998 colon) was over 75 µM and the TGI (NCI-H23 lung) was over 75 µM. It also gave a TGI (MCF7 breast) of over 75 µM and a TGI (SK-MEL-28 melanoma) of over 75 µM.
For `[N-]=[N+]=NC1=C(C(=O)c2ccccc2)C(=O)c2cccc3cccc1c23`, the TGI (K-562 leukemia) was over 100 µM, the TGI (SNB-19 CNS) was over 100 µM and the TGI (786-0 renal) was over 100 µM. For the same compound, the TGI (NCI-H226 lung) was over 100 µM, the TGI (HCT-116 colon) was over 100 µM and the TGI (UO-31 renal) was over 100 µM. The TGI (OVCAR-3 ovarian) was over 100 µM, the TGI (UACC-62 melanoma) was over 100 µM and the TGI (SK-OV-3 ovarian) was over 100 µM. It also gave a TGI (MOLT-4 leukemia) of over 100 µM, a TGI (T-47D breast) of over 100 µM and a TGI (NCI/ADR-RES ovarian) of over 100 µM. For the same compound, the TGI (SK-MEL-5 melanoma) was over 100 µM, the TGI (CAKI-1 renal) was over 100 µM and the TGI (ACHN renal) was over 100 µM. It also gave a TGI (TK-10 renal) of over 100 µM, a TGI (SW-620 colon) of over 100 µM and a TGI (KM12 colon) of over 100 µM. The TGI (HOP-92 NSCLC) was over 100 µM, the TGI (UACC-257 melanoma) was over 100 µM and the TGI (MALME-3M melanoma) was over 100 µM. The TGI (HOP-62 NSCLC) was 62 µM, the TGI (PC-3 prostate) was over 100 µM and the TGI (HS 578T breast) was 61.4 µM. It also gave a TGI (NCI-H522 lung) of 81.5 µM, a TGI (COLO 205 colon) of over 100 µM and a TGI (A549 NSCLC) of over 100 µM. The TGI (SF-539 CNS) was over 100 µM, the TGI (MDA-N) was over 100 µM and the TGI (SK-MEL-2 melanoma) was 69.6 µM. The TGI (CCRF-CEM leukemia) was over 100 µM, the TGI (OVCAR-4 ovarian) was over 100 µM and the TGI (IGROV1 ovarian) was 88.5 µM. For the same compound, the TGI (SNB-75 CNS) was 33.4 µM, the TGI (MDA-MB-231 breast) was 87.2 µM and the TGI (M14 melanoma) was over 100 µM. For the same compound, the TGI (RXF 393 renal) was 71 µM, the TGI (SF-268 CNS) was 36.2 µM and the TGI (U251 CNS) was over 100 µM. It also gave a TGI (BT-549 breast) of over 100 µM, a TGI (MDA-MB-435) of over 100 µM and a TGI (OVCAR-8 ovarian) of over 100 µM. For the same compound, the TGI (OVCAR-5 ovarian) was over 100 µM, the TGI (EKVX NSCLC) was 89.2 µM and the TGI (SF-295 CNS) was over 100 µM. The TGI (SN12C renal) was over 100 µM, the TGI (RPMI-8226 leukemia) was over 100 µM and the TGI (SR leukemia) was 77.6 µM. The TGI (HT29 colon) was over 100 µM, the TGI (NCI-H23 lung) was over 100 µM and the TGI (MCF7 breast) was over 100 µM. For the same compound, the TGI (SK-MEL-28 melanoma) was over 100 µM.
Compound `O=C(O)c1ccc(Cc2ccccc2C(=O)O)cc1` has a TGI (K-562 leukemia) of over 100 µM, a TGI (SNB-19 CNS) of over 100 µM and a TGI (786-0 renal) of over 100 µM. For the same compound, the TGI (NCI-H226 lung) was over 100 µM, the TGI (HCT-116 colon) was over 100 µM and the TGI (UO-31 renal) was over 100 µM. It also gave a TGI (OVCAR-3 ovarian) of over 100 µM, a TGI (UACC-62 melanoma) of over 100 µM and a TGI (SK-OV-3 ovarian) of over 100 µM. For the same compound, the TGI (T-47D breast) was over 100 µM, the TGI (NCI/ADR-RES ovarian) was over 100 µM and the TGI (SK-MEL-5 melanoma) was over 100 µM. It also gave a TGI (HCT-15 colon) of over 100 µM, a TGI (CAKI-1 renal) of over 100 µM and a TGI (ACHN renal) of over 100 µM. It also gave a TGI (TK-10 renal) of over 100 µM, a TGI (SW-620 colon) of over 100 µM and a TGI (KM12 colon) of over 100 µM. For the same compound, the TGI (HOP-92 NSCLC) was over 100 µM, the TGI (UACC-257 melanoma) was over 100 µM and the TGI (MALME-3M melanoma) was over 100 µM. For the same compound, the TGI (HOP-62 NSCLC) was over 100 µM, the TGI (PC-3 prostate) was over 100 µM and the TGI (HS 578T breast) was over 100 µM. For the same compound, the TGI (NCI-H460 lung) was over 100 µM, the TGI (NCI-H522 lung) was over 100 µM and the TGI (COLO 205 colon) was over 100 µM. For the same compound, the TGI (A549 NSCLC) was over 100 µM, the TGI (SF-539 CNS) was over 100 µM and the TGI (MDA-N) was over 100 µM. The TGI (SK-MEL-2 melanoma) was over 100 µM, the TGI (CCRF-CEM leukemia) was over 100 µM and the TGI (OVCAR-4 ovarian) was over 100 µM. For the same compound, the TGI (IGROV1 ovarian) was over 100 µM, the TGI (SNB-75 CNS) was over 100 µM and the TGI (MDA-MB-231 breast) was over 100 µM. It also gave a TGI (M14 melanoma) of over 100 µM, a TGI (RXF 393 renal) of over 100 µM and a TGI (HL-60(TB) leukemia) of over 100 µM. It also gave a TGI (SF-268 CNS) of over 100 µM, a TGI (U251 CNS) of over 100 µM and a TGI (BT-549 breast) of over 100 µM. It also gave a TGI (MDA-MB-435) of over 100 µM, a TGI (OVCAR-8 ovarian) of over 100 µM and a TGI (OVCAR-5 ovarian) of over 100 µM. The TGI (EKVX NSCLC) was over 100 µM, the TGI (SF-295 CNS) was over 100 µM and the TGI (SN12C renal) was over 100 µM. The TGI (RPMI-8226 leukemia) was over 100 µM, the TGI (SR leukemia) was over 100 µM and the TGI (A498 renal) was over 100 µM. For the same compound, the TGI (LOX IMVI melanoma) was over 100 µM, the TGI (HT29 colon) was over 100 µM and the TGI (HCC-2998 colon) was over 100 µM. The TGI (NCI-H23 lung) was over 100 µM, the TGI (MCF7 breast) was over 100 µM and the TGI (SK-MEL-28 melanoma) was over 100 µM.

Reference: PubChem BioAssay (NCI)
